Assay results reported in the OPERA property sets (Mansouri et al. 2018).

Conditions: not given

Row | SMILES | melting point | boiling point | ready biodegradability | log10 Koc (L/kg) | log10 Henry constant (atm·m³/mol) | log10 vapour pressure (mmHg) | log10 Koa | log10 biodegradation half-life (days)
1 | COc1cnc(NS(=O)(=O)c2ccc(N)cc2)nc1 | 215 °C |  |  |  |  |  |  | 
2 | ClC(c1ccccc1)(c1ccccc1)c1ccccc1 | 114 °C | 310 °C | not readily biodegradable |  |  |  |  | 
3 | O=C(O)c1cccc([N+](=O)[O-])c1 | 141 °C |  | not readily biodegradable |  |  |  |  | 
4 | CC=CC(C)C(C)C=CC (stereo not given) | -64.8 °C | 154 °C |  |  |  |  |  | 
5 | COc1ccc([N+](=O)[O-])cn1 | 108 °C |  |  |  |  |  |  | 
6 | COc1ccc(Cc2cnc(N)nc2N)cc1OC | 233 °C |  |  |  |  |  |  | 
7 | CNC(=O)Oc1ccc(N(C)C)c(C)c1 | 93.5 °C |  | readily biodegradable | 2 |  |  |  | 
8 | c1nnn[nH]1 | 157 °C |  |  |  |  |  |  | 
9 | Clc1ccc2c(c1)Oc1cc(Cl)c(Cl)c(Cl)c1O2 | 172 °C |  |  |  | -5.12 | -8.12 |  | 
10 | CC(=O)N1C[C@H](O)C[C@H]1C(=O)O | 132 °C |  |  |  |  |  |  | 
11 | CC(=O)CC(=O)Nc1ccc(Cl)cc1 | 132 °C |  |  |  |  |  |  | 
12 | Clc1cc2c(cc1Cl)Oc1c(cc(Cl)c(Cl)c1Cl)O2 | 240 °C |  |  |  |  | -9.36 | 10.6 | 
13 | CC(C)COC=O | -95.8 °C | 98.2 °C |  |  |  | 1.6 |  | 
14 | C#CCOC |  | 63 °C |  |  |  |  |  | 
15 | CC(=O)CCC(=O)O | 33 °C | 246 °C |  |  |  | -2.95 |  | 
16 | OCCc1ccc2ccccc2n1 | 103 °C |  |  |  |  |  |  | 
17 | C=C(C)C=CC | 75.5 °C |  |  |  |  |  |  | 
18 | CCC(CC)CO |  | 147 °C |  |  |  | 0.185 |  | 
19 | CCCCCCCCc1ccccc1 | -36 °C | 264 °C |  |  |  | -1.95 |  | 
20 | NC(=O)CCCCC1CCSS1 (stereo not given) | 128 °C |  |  |  |  |  |  | 
21 | C=C(Cl)C#N | -65 °C | 88.5 °C |  |  |  |  |  | 
22 | Cc1c([N+](=O)[O-])cc(N)cc1[N+](=O)[O-] | 171 °C |  |  |  |  |  |  | 
23 | C#CC(O)c1ccccc1 (stereo not given) | 22 °C |  |  |  |  |  |  | 
24 | O=C(CCCN1CCC2(CC1)C(=O)NCN2c1ccccc1)c1ccc(F)cc1 | 142 °C |  |  |  |  |  |  | 
25 | C=CC[N+](=O)[O-] |  | 128 °C |  |  |  |  |  | 
26 | CCOS(=O)(=O)c1ccc(C)cc1 | 34.5 °C |  |  |  |  |  |  | 
27 | CC=CCCc1ccccn1 |  | 216 °C |  |  |  |  |  | 
28 | COC(=O)C1(S(=O)(=O)c2ccc([N+](=O)[O-])cc2)CC1 | 127 °C |  |  |  |  |  |  | 

Row | SMILES | melting point | boiling point | ready biodegradability | log10 Koc (L/kg) | log10 Henry constant (atm·m³/mol) | log10 vapour pressure (mmHg) | log10 Koa | log10 biodegradation half-life (days)
29 | CN1C(=O)CC(c2ccccc2)C1=O (stereo not given) | 72 °C |  |  |  |  |  |  | 
30 | O=C(CO)[C@@H](O)[C@H](O)[C@@H](O)CO | 165 °C |  |  |  |  |  |  | 
31 | CC(Oc1ccc2ccccc2c1)C(O)=Nc1ccccc1 (stereo not given) | 128 °C |  |  |  |  | -10.7 |  | 
32 | CC(C)(Oc1ccccc1)C(=O)O | 98.5 °C |  |  |  |  |  |  | 
33 | CCCCCCCCCCCCCCCCCCCCCCCCCCCCCCCCCC | 72.6 °C | 483 °C | readily biodegradable |  |  |  |  | 2.58
34 | COB(OC)OC | -31.6 °C | 68 °C |  |  |  | 2.13 |  | 
35 | CCOC(=O)C(C)C(C)=O (stereo not given) |  | 187 °C |  |  |  |  |  | 
36 | CCCCOCCOCCOCCO | -30 °C | 278 °C |  |  |  | -2.6 |  | 
37 | CCOc1cccc(-c2ccccc2)c1 | 35 °C | 305 °C |  |  |  |  |  | 
38 | CCOc1ccc(Cc2nccc3cc(OCC)c(OCC)cc23)cc1OCC | 100 °C |  |  |  |  |  |  | 
39 | Nc1c(Br)cc(O)c2c1C(=O)c1ccccc1C2=O |  |  | not readily biodegradable |  |  |  |  | 
40 | Oc1ccc(/N=N/c2ccccc2)cc1 | 155 °C |  |  |  |  | -6.64 |  | 
41 | O=S1(=O)CCCC1 | 27.6 °C | 285 °C | not readily biodegradable |  |  |  |  | 
42 | COc1ccccc1OP(=O)(Oc1ccccc1OC)Oc1ccccc1OC | 91 °C |  |  |  |  |  |  | 
43 | C[C@@H]1C(=O)OC[C@H]2[C@@H]1CC[C@@H]2C | 60.5 °C |  |  |  |  |  |  | 
44 | O=C1c2ccccc2C(=O)c2c(O)c(O)cc(O)c21 | 259 °C |  |  |  |  |  |  | 
45 | COc1ccc(C(=O)c2ccc(OC)cc2O)c(O)c1 | 140 °C |  |  |  |  |  |  | 
46 | O=c1ccocc1 | 32.5 °C | 212 °C |  |  |  |  |  | 
47 | COC(=O)CC(=O)C(C)(C)C |  |  | not readily biodegradable |  |  |  |  | 
48 | CC1CCOS(=O)O1 (stereo not given) | 5 °C | 185 °C |  |  |  |  |  | 
49 | COc1ccc2c3c1O[C@H]1[C@@H](O)C=C[C@H]4[C@@H](C2)N(C)CC[C@@]341 | 158 °C |  |  |  |  |  |  | 
50 | CC(C)C[N+](=O)[O-] | -76.8 °C | 140 °C |  |  |  | 0.838 |  | 
51 | Nc1ccccn1 | 57.5 °C | 211 °C | not readily biodegradable |  |  |  |  | 
52 | C1CCC2CC2C1 (stereo not given) |  | 116 °C |  |  |  | 1.36 |  | 
53 | CS(=O)(=O)c1ccc([C@@H](O)[C@@H](CO)NC(=O)C(Cl)Cl)cc1 | 165 °C |  |  |  |  |  |  | 
54 | CCCCCCCC(=O)OC(=O)CCCCCCC | -1 °C | 282 °C |  |  |  |  |  | 
55 | Clc1ccc(OCOc2ccc(Cl)cc2)cc1 | 70.5 °C |  |  |  |  |  |  | 

Same assay, conditions: fish

Row | SMILES | log10 BCF | log10 biotransformation half-life (days)
56 | Clc1c(Cl)c(Cl)c(-c2c(Cl)c(Cl)c(Cl)c(Cl)c2Cl)c(Cl)c1Cl | 4.24 | 2.86
57 | FC(F)C(F)(F)OCC(Cn1cncn1)c1ccc(Cl)cc1Cl (stereo not given) |  | 1.23
58 | Clc1ccc(C(c2ccc(Cl)cc2)C(Cl)Cl)cc1 |  | 2.44
59 | ClC(c1ccccc1)(c1ccccc1)c1ccccc1 | 2.63 | -0.15
60 | O=C(O)c1cccc([N+](=O)[O-])c1 | 0.85 | 
61 | Clc1cc2c(cc1Cl)Oc1c(cc(Cl)c(Cl)c1Cl)O2 | 4.26 | 1.56
62 | CCCCCCCCc1ccccc1 |  | 0.22
63 | O=S1(=O)CCCC1 | 0.85 | 
64 | Nc1ccccn1 | 1.06 | 
